For test [1], the system named is c-Kit1 (FAM/TAMRA) (DNA, G4) AGGGAGGGCGCTGGGAGGAGGG
The test can be described thus: FRET melting. The note with it: 60 mM potassium cacodylate; pH 7.4; 1 μM compound, 0.2 μM oligonucleotide.

Test [2] has as its system h-TERT (FAM/TAMRA) (DNA, G4) GGGGGCTGGGCCGGGGACCCGGGAGGGGTCGGGACGGGGCGGGG
The test can be described thus: FRET melting. The settings on record: 60 mM potassium cacodylate; pH 7.4; 1 μM compound, 0.2 μM oligonucleotide.

Test [3] deals with bcl2 (FAM/TAMRA) (DNA, G4) AGGGGCGGGCGCGGGAGGAAGGGGGCGGGAGCGGGGCTG
The experiment in a line: FRET melting. The settings on record: 60 mM potassium cacodylate; pH 7.4; 1 μM compound, 0.2 μM oligonucleotide.

Test [4] deals with c-Kit1 (DNA, G4) AGGGAGGGCGCTGGGAGGAGGG
The experiment in a line: UV-Vis titration, reciprocal plot (Wolfe). The settings on record: K+ 100 mM (KCl); 50 mM Tris-HCl, pH 7.5, 25 °C.

Test [5] deals with h-TERT (DNA, G4) GGGGGCTGGGCCGGGGACCCGGGAGGGGTCGGGACGGGGCGGGG
The experiment in a line: UV-Vis titration, reciprocal plot (Wolfe). The settings on record: K+ 100 mM (KCl); 50 mM Tris-HCl, pH 7.5, 25 °C.

Test [6] deals with bcl2 (DNA, G4) AGGGGCGGGCGCGGGAGGAAGGGGGCGGGAGCGGGGCTG
The experiment in a line: UV-Vis titration, reciprocal plot (Wolfe). The settings on record: K+ 100 mM (KCl); 50 mM Tris-HCl, pH 7.5, 25 °C.

For test [7], the system named is c-Kit1 (DNA, G4) AGGGAGGGCGCTGGGAGGAGGG
The test can be described thus: UV-Vis titration, intrinsic method (Rodger and Nordén). The settings on record: K+ 100 mM (KCl); 50 mM Tris-HCl, pH 7.5, 25 °C.

Test [8] relates to h-TERT (DNA, G4) GGGGGCTGGGCCGGGGACCCGGGAGGGGTCGGGACGGGGCGGGG
The description is as above. The note with it: K+ 100 mM (KCl); 50 mM Tris-HCl, pH 7.5, 25 °C.

In test [9] the test system is bcl2 (DNA, G4) AGGGGCGGGCGCGGGAGGAAGGGGGCGGGAGCGGGGCTG
Described as above. The settings on record: K+ 100 mM (KCl); 50 mM Tris-HCl, pH 7.5, 25 °C.

Molecules are shown by their SMILES.

As to `CC[N+](CC)(CC)Cc1ccc([O-])c(C=NCCN=Cc2cc(C[N+](CC)(CC)CC)ccc2[O-])c1.[Ni+2]`, the binding result in [1], in test [2] and in test [3] was “yes” each time. Moreover, the K b entry in test [4] was “(2.4 ± 0.5) × 10^5 M^–1”; in [5] it was “(1.1 ± 0.1) × 10^5 M^–1”; in test [6], “(2.0 ± 0.4) × 10^5 M^–1”; in test [7], “(4.9 ± 0.3) × 10^4 M^–1”; in test [8] it was “(3.7 ± 0.4) × 10^4 M^–1”; in [9], “(3.4 ± 0.3) × 10^4 M^–1”.

Regarding `CC[N+](CC)(CC)Cc1ccc([O-])c(C=NCCN=Cc2cc(C[N+](CC)(CC)CC)ccc2[O-])c1.[Cu+2]`, the binding result in test [1], in [2] and in test [3] was “yes” each time.

The record behind these values is article PMC5048337 (2016).
